This is an account of results in ChEMBL document CHEMBL1138642, “In vitro advanced antimycobacterial screening of cobalt(II) and copper(II) complexes of fluorinated isonicotinoylhydrazones” (2004).

SMILES strings stand for the structures. ≈ marks a conversion by molar mass, not a printed value.

Holding throughout (type): functional
Assay [1] concerns Mycobacterium tuberculosis. The assay is described as follows: Effective concentration required to reduce CFU of Mycobacterium tuberculosis Erdman (ATCC 35801) strain was determined in monolayers of mouse bone marrow macrophages; […].
Assay [2] relates to Mycobacterium tuberculosis. The assay is described as follows: Effective concentration required to reduce CFU of Mycobacterium tuberculosis Erdman (ATCC 35801) strain was determined in monolayers of mouse bone marrow macrophages; Range is 0.5-1.5.
Assay [3] has as its system Mycobacterium tuberculosis. The assay is described as follows: Effective concentration required to reduce CFU of Mycobacterium tuberculosis Erdman (ATCC 35801) strain was determined in monolayers of mouse bone marrow macrophages.
In assay [4] the test system is Mycobacterium tuberculosis. The assay is described as follows: Effective concentration required compared to that of Minimum inhibition concentration required against Mycobacterium tuberculosis H37Rv strain was determined; Range is 0.6-1.2.
In assay [5] the test system is Mycobacterium tuberculosis. In words: Minimum bactericidal concentration required against Mycobacterium tuberculosis H37Rv strain was determined in monolayers of mouse bone marrow macrophages.

In general, EC90 refers to the concentration at which the effect reaches the 90% level. Usually EC99 stands for the point of the concentration-response curve where the effect stands at 99%. Read a low EC99 as greater potency. Regarding `CO[C@H]1/C=C/O[C@@]2(C)Oc3c(C)c(O)c4c(O)c(c(/C=N/N5CCN(C)CC5)c(O)c4c3C2=O)NC(=O)/C(C)=C\C=C\[C@H](C)[C@H](O)[C@@H](C)[C@@H](O)[C@@H](C)[C@H](OC(C)=O)[C@@H]1C` [RIFAMPIN], the EC90 in assay [1] came out at 0.1 µg/mL (≈ 0.122 µM). In assay [2], this compound yielded an EC99 of 1.5 µg/mL.

Take `NNC(=O)c1ccncc1` [ISONIAZID]: in assay [3], it took 0.03 µg/mL (≈ 0.219 µM) to reach the 90% level (EC90) and the 99% effect concentration (EC99) is 0.42 µg/mL. For the same compound, the EC90/MIC in assay [4] worked out at 1.2. In assay [5], this compound showed an MBC of 0.1 µg/mL (≈ 0.729 µM).
